According to the supplement of paper PMC11061612:

How the values were obtained:
Capivasertib = compound: C1CN(CCC1(C(=O)N[C@@H](CCO)C2=CC=C(C=C2)Cl)N)C3=NC=NC4=C3C=CN4 [Capivasertib]
Method in brief: (§1)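 Cancer cell lines in 1536-well plates (7.5 μl DMEM/F12 or RPMI, 10% FBS) were held 24 hours at 37°C and 5% CO2 and then dosed for 72 hours at a final DMSO of typically 0.2%. Viability was taken from CellTiter-Glo 2.0 luminescence, scaled between blank-well and DMSO-well means. Curves were fitted as two-parameter logistic models with a non-linear mixed effects model, from which the single-agent IC50 was taken.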

AZD1775 = compound: C=CCn1c(=O)c2cnc(Nc3ccc(N4CCN(C)CC4)cc3)nc2n1-c1cccc(C(C)(C)O)n1 [AZD1775]
Method in brief: as §1

Trametinib = compound: CC(=O)Nc1cccc(-n2c(=O)n(C3CC3)c(=O)c3c(Nc4ccc(I)cc4F)n(C)c(=O)c(C)c32)c1 [Trametinib]; conditions: max 1 µM
Method in brief: as §1

Palbociclib = compound: CC(=O)c1c(C)c2cnc(Nc3ccc(N4CCNCC4)cn3)nc2n(C2CCCC2)c1=O [Palbociclib]; conditions: max 10 µM
Method in brief: as §1

AZD1390 = compound: CC(C)n1c(=O)n(C)c2cnc3cc(F)c(-c4ccc(OCCCN5CCCCC5)nc4)cc3c21 [AZD1390]; conditions: max 0.3 µM
Method in brief: as §1

Venetoclax = compound: CC1(C)CCC(CN2CCN(c3ccc(C(=O)NS(=O)(=O)c4ccc(NCC5CCOCC5)c([N+](=O)[O-])c4)c(Oc4cnc5[nH]ccc5c4)c3)CC2)=C(c2ccc(Cl)cc2)C1 [Venetoclax]; conditions: max 1 µM
Method in brief: as §1

Dasatinib = compound: CC1=C(C(=CC=C1)Cl)NC(=O)C2=CN=C(S2)NC3=CC(=NC(=N3)C)N4CCN(CC4)CCO [Dasatinib]; conditions: max 2 µM
Method in brief: as §1

SG3199 = compound: CC1=CN2[C@@H](C1)C=NC3=CC(=C(C=C3C2=O)OC)OCCCCCOC4=C(C=C5C(=C4)N=C[C@@H]6CC(=CN6C5=O)C)OC [SG3199]; conditions: max 0.001 µM
Method in brief: as §1

AZD2811 = compound: CCN(CCO)CCCOc1ccc2c(Nc3cc(CC(=O)Nc4cccc(F)c4)[nH]n3)ncnc2c1 [AZD2811]; conditions: max 1 µM
Method in brief: as §1

SN-38 = compound: CCc1c2c(nc3ccc(O)cc13)-c1cc3c(c(=O)n1C2)COC(=O)[C@]3(O)CC [SN-38]; conditions: max 0.3 µM
Method in brief: as §1

AZD0156 = compound: CN(C)CCCOc1ccc(-c2ccc3ncc4c(c3c2)n(C2CCOCC2)c(=O)n4C)cn1 [AZD0156]
Method in brief: as §1

AZD4320 = compound: CN(CC[C@H](CSC1=CC=CC=C1)NC2=C(C=C(C=C2)S(=O)(=O)NC(=O)C3=CC=C(C=C3)N4CCC(CC4)[C@H](C5=CC=CC=C5C6=CC=C(C=C6)Cl)O)S(=O)(=O)C(F)(F)F)CCO [AZD4320]; conditions: max 1 µM
Method in brief: as §1

Alisertib = compound: COc1cc(Nc2ncc3c(n2)-c2ccc(Cl)cc2C(c2c(F)cccc2OC)=NC3)ccc1C(=O)O [Alisertib]; conditions: max 10 µM
Method in brief: as §1

Gefitinib = compound: COc1cc2ncnc(Nc3ccc(F)c(Cl)c3)c2cc1OCCCN1CCOCC1 [Gefitinib]; conditions: max 10 µM
Method in brief: as §1

Prexasertib = compound: COc1cccc(OCCCN)c1-c1cc(Nc2cnc(C#N)cn2)n[nH]1 [Prexasertib]; conditions: max 1 µM
Method in brief: as §1

Doxorubicin = compound: COc1cccc2c1C(=O)c1c(O)c3c(c(O)c1C2=O)C[C@@](O)(C(=O)CO)C[C@@H]3O[C@H]1C[C@H](N)[C@H](O)[C@H](C)O1 [Doxorubicin]; conditions: max 1 µM
Method in brief: as §1

AZD5153 = compound: COc1nnc2ccc(N3CCC(c4ccc(OCCN5CCN(C)C(=O)[C@H]5C)cc4)CC3)nn12 [AZD5153]; conditions: max 1 µM
Method in brief: as §1

Lapatinib = compound: CS(=O)(=O)CCNCc1ccc(-c2ccc3ncnc(Nc4ccc(OCc5cccc(F)c5)c(Cl)c4)c3c2)o1 [Lapatinib]; conditions: max 10 µM
Method in brief: as §1

AZD8186 = compound: C[C@@H](Nc1cc(F)cc(F)c1)c1cc(C(=O)N(C)C)cc2c(=O)cc(N3CCOCC3)oc12 [AZD8186]; conditions: max 3 µM
Method in brief: as §1

Crizotinib = compound: C[C@@H](Oc1cc(-c2cnn(C3CCNCC3)c2)cnc1N)c1c(Cl)ccc(F)c1Cl [Crizotinib]; conditions: max 10 µM
Method in brief: as §1

Savolitinib = compound: C[C@@H](c1ccc2nccn2c1)n1nnc2ncc(-c3cnn(C)c3)nc21 [Savolitinib]; conditions: max 1 µM
Method in brief: as §1

AZD6738 = compound: C[C@@H]1COCCN1C2=NC(=NC(=C2)C3(CC3)[S@](=N)(=O)C)C4=C5C=CNC5=NC=C4 [AZD6738]; conditions: max 10 µM
Method in brief: as §1

AZD5991 = compound: Cc1c2c(nn1C)CSCc1cc(n(C)n1)CSc1cc(c3ccccc3c1)OCCCc1c(C(=O)O)n(C)c3c-2c(Cl)ccc13 [AZD5991]; conditions: max 1 µM
Method in brief: as §1

AZD7648 = compound: Cc1cc2ncnn2cc1Nc1ncc2c(n1)n(C1CCOCC1)c(=O)n2C [AZD7648]; conditions: max 10 µM
Method in brief: as §1

Taselisib = compound: Cc1nc(-c2cn3c(n2)-c2ccc(-c4cnn(C(C)(C)C(N)=O)c4)cc2OCC3)n(C(C)C)n1 [Taselisib]; conditions: max 10 µM
Method in brief: as §1

Selumetinib = compound: Cn1cnc2c(F)c(Nc3ccc(Br)cc3Cl)c(C(=O)NOCCO)cc21 [Selumetinib]
Method in brief: as §1

Olaparib = compound: O=C(c1cc(Cc2n[nH]c(=O)c3ccccc23)ccc1F)N1CCN(C(=O)C2CC2)CC1 [Olaparib]; conditions: max 10 µM
Method in brief: as §1

Cell Line | IC50, cell viability 72 h (Capivasertib; max 10 µM) | IC50, cell viability 72 h (AZD1775; max 3 µM) | IC50, cell viability 72 h (Trametinib) | IC50, cell viability 72 h (Palbociclib) | IC50, cell viability 72 h (AZD1390) | IC50, cell viability 72 h (Venetoclax) | IC50, cell viability 72 h (Dasatinib) | IC50, cell viability 72 h (SG3199) | IC50, cell viability 72 h (AZD2811) | IC50, cell viability 72 h (SN-38) | IC50, cell viability 72 h (AZD0156; max 3 µM) | IC50, cell viability 72 h (AZD4320) | IC50, cell viability 72 h (Alisertib) | IC50, cell viability 72 h (Gefitinib) | IC50, cell viability 72 h (Prexasertib) | IC50, cell viability 72 h (Doxorubicin) | IC50, cell viability 72 h (AZD5153) | IC50, cell viability 72 h (Lapatinib) | IC50, cell viability 72 h (AZD8186) | IC50, cell viability 72 h (Crizotinib) | IC50, cell viability 72 h (Savolitinib) | IC50, cell viability 72 h (AZD6738) | IC50, cell viability 72 h (AZD5991) | IC50, cell viability 72 h (AZD7648) | IC50, cell viability 72 h (Taselisib) | IC50, cell viability 72 h (Selumetinib; max 10 µM) | IC50, cell viability 72 h (Olaparib) | IC50, cell viability 72 h (Capivasertib; max 3 µM) | IC50, cell viability 72 h (AZD1775; max 1 µM) | IC50, cell viability 72 h (AZD0156; max 1 µM) | IC50, cell viability 72 h (Selumetinib; max 3 µM)
NCI-H1623 (Lung Adenocarcinoma) | > 10000 nM | > 3000 nM | 229 nM | > 10000 nM | > 300 nM | > 1000 nM | > 2000 nM | > 1 nM | > 1000 nM | 7.47 nM | > 3000 nM | > 1000 nM | > 10000 nM | 714 nM | 89.5 nM | > 1000 nM | > 1000 nM | 902 nM | > 3000 nM | > 10000 nM | > 1000 nM | 8050 nM | 163 nM | > 10000 nM | 340 nM | > 10000 nM | > 10000 nM |  |  |  | 
HSC-3 (Oral Cavity Carcinoma) | 4550 nM | 1730 nM | 216 nM | > 10000 nM | > 300 nM | > 1000 nM | 877 nM | > 1 nM | > 1000 nM | 18.5 nM | > 3000 nM | > 1000 nM | 3390 nM | 6900 nM | 213 nM | > 1000 nM | 123 nM | 2310 nM | > 3000 nM | 5820 nM | > 1000 nM | > 10000 nM | > 1000 nM | > 10000 nM | 2260 nM | > 10000 nM | > 10000 nM |  |  |  | 
Caov-3 (Ovarian Carcinoma) |  |  | > 1000 nM |  |  | > 1000 nM |  | > 1 nM | 48.7 nM | 5.51 nM |  | > 1000 nM | 30.5 nM |  | 35.5 nM | 316 nM |  |  | > 3000 nM |  |  | 2740 nM | > 1000 nM | > 10000 nM | 5610 nM |  | > 10000 nM | > 3000 nM | 453 nM | > 1000 nM | > 3000 nM
NCI-H196 (Small Cell Lung Carcinoma) | > 10000 nM | 2110 nM | > 1000 nM | > 10000 nM | > 300 nM | > 1000 nM | > 2000 nM | > 1 nM | > 1000 nM | > 300 nM | > 3000 nM | > 1000 nM | > 10000 nM | > 10000 nM | 170 nM | > 1000 nM | > 1000 nM | > 10000 nM | > 3000 nM | > 10000 nM | > 1000 nM | > 10000 nM | > 1000 nM | > 10000 nM | > 10000 nM | > 10000 nM | > 10000 nM |  |  |  | 
RPMI-8866 (Chronic Myelogenous Leukemia) | > 10000 nM | 349 nM | > 1000 nM | 2710 nM | > 300 nM | > 1000 nM | 1130 nM | > 1 nM | 449 nM | 4.48 nM | > 3000 nM | 362 nM | 153 nM | > 10000 nM | 10 nM | 125 nM | 47.6 nM | > 10000 nM | > 3000 nM | 5730 nM | > 1000 nM | 926 nM | > 1000 nM | > 10000 nM | 2450 nM | > 10000 nM | > 10000 nM |  |  |  | 
RERF-LC-KJ (Lung Adenocarcinoma) | > 10000 nM | > 3000 nM | > 1000 nM | > 10000 nM | > 300 nM | > 1000 nM | > 2000 nM | > 1 nM | > 1000 nM | 240 nM | > 3000 nM | > 1000 nM | > 10000 nM | > 10000 nM | > 1000 nM | > 1000 nM | 83.7 nM | > 10000 nM | > 3000 nM | > 10000 nM | > 1000 nM | > 10000 nM | > 1000 nM | > 10000 nM | 6500 nM | > 10000 nM | > 10000 nM |  |  |  | 
OCI-AML5 (Acute Myeloid Leukemia) | > 10000 nM | 543 nM | 28.9 nM | 6640 nM | > 300 nM | 50.6 nM | > 2000 nM | > 1 nM | 18.6 nM | 9.54 nM | > 3000 nM | 42.7 nM | 1130 nM | > 10000 nM | 13.4 nM | 658 nM | 323 nM | > 10000 nM | > 3000 nM | 2410 nM | > 1000 nM | 2240 nM | 58.8 nM | > 10000 nM | 2190 nM | 2120 nM | > 10000 nM |  |  |  | 
Calu-6 (Non-Small Cell Lung Carcinoma) | > 10000 nM | 784 nM | 72.4 nM | > 10000 nM | > 300 nM | > 1000 nM | > 2000 nM | > 1 nM | > 1000 nM | 93.4 nM | > 3000 nM | > 1000 nM | 5690 nM | > 10000 nM | 48.1 nM | > 1000 nM | > 1000 nM | > 10000 nM | > 3000 nM | > 10000 nM | > 1000 nM | 4100 nM | > 1000 nM | > 10000 nM | > 10000 nM | 6080 nM | > 10000 nM |  |  |  | 
